Measured values published in US9115134B2, “6-triazolopyridazine sulfanyl benzothiazole derivatives as MET inhibitors” (SANOFI, priority 2007, dated 2015).

Legend:
MET [1] = molecular target: T1, MET (Homo sapiens, UniProt P08581); experiment: Test B: Inhibition of the autophosphorylation of MET; ELISA technique (pppY1230,1234,1235) in MKN45 cells; assay type: cell-based; design: Seed MKN45 cells into 96-well plates (Cell coat BD polylysine) at 20 000 cells/well; endogenous in cells; host or cells: MKN45 cells; conditions: 1 h treatment, PhosphoMET ELISA
Procedure: Leave to adhere for 24 hours in an incubator.
The cells are treated the day after seeding with the products at 6 concentrations in duplicate for 1 h. At least 3 control wells are treated with the same final amount of DMSO.
Product dilution: Stock at 10 mM in pure DMSO—range from 10 mM to 30 μM with an increment of 3 in pure DMSO—intermediate 1/50 dilutions in culture medium and then removal of 10 μl added directly to the cells (200 μl): final range of 10 000 to 30 nM.
At the end of the incubation, carefully remove the supernatant and rinse with 200 μl of PBS. Next, place 100 μl of lysis buffer directly in the wells on ice and incubate at 4° C. for 30 minutes. Lysis buffer: 10 mM Tris HCl, pH7.4, 100 mM NaCl, 1 mM EDTA, 1 mM EGTA, 1% Triton X-100, 10% glycerol, 0.1% SDS, 0.5% deoxycholate, 20 mM NaF, 2 mM Na3VO4, 1 mM PMSF and cocktail of antiproteases.
The 100 μl of lysates are transferred into a V-bottomed polypropylene plate and the ELISA is performed immediately, or the plate is frozen at −80° C. • b) PhosphoMET ELISA BioSource Kit KH00281
Into each well of the kit plate, add 70 μl of kit dilution buffer+30 μL of cell lysate or 30 μl of lysis buffer for the blanks. Incubate for 2 h with gentle agitation at ambient temperature.
Rinse the wells 4 times with 400 μl of kit washing buffer. Incubate with 100 μl of anti-phospho MET antibody for 1 hour at ambient temperature.
Rinse the wells 4 times with 400 μl of kit washing buffer. Incubate with 100 μl of anti-rabbit HRP antibody for 30 minutes at ambient temperature (except for the wells of chromogen alone).
Rinse the wells 4 times with 400 μl of kit washing buffer. Introduce 100 μL of chromogen and incubate for 30 minutes in the dark at ambient temperature.
(§1) Stop the reaction with 100 μl of stop solution. Read without delay at […], 0.1 second on Wallac Victor plate reader. • C) Test C: Measurement of cell proliferation by ^14c-thymidine pulse
Target sequence in this assay (P08581 25-1390): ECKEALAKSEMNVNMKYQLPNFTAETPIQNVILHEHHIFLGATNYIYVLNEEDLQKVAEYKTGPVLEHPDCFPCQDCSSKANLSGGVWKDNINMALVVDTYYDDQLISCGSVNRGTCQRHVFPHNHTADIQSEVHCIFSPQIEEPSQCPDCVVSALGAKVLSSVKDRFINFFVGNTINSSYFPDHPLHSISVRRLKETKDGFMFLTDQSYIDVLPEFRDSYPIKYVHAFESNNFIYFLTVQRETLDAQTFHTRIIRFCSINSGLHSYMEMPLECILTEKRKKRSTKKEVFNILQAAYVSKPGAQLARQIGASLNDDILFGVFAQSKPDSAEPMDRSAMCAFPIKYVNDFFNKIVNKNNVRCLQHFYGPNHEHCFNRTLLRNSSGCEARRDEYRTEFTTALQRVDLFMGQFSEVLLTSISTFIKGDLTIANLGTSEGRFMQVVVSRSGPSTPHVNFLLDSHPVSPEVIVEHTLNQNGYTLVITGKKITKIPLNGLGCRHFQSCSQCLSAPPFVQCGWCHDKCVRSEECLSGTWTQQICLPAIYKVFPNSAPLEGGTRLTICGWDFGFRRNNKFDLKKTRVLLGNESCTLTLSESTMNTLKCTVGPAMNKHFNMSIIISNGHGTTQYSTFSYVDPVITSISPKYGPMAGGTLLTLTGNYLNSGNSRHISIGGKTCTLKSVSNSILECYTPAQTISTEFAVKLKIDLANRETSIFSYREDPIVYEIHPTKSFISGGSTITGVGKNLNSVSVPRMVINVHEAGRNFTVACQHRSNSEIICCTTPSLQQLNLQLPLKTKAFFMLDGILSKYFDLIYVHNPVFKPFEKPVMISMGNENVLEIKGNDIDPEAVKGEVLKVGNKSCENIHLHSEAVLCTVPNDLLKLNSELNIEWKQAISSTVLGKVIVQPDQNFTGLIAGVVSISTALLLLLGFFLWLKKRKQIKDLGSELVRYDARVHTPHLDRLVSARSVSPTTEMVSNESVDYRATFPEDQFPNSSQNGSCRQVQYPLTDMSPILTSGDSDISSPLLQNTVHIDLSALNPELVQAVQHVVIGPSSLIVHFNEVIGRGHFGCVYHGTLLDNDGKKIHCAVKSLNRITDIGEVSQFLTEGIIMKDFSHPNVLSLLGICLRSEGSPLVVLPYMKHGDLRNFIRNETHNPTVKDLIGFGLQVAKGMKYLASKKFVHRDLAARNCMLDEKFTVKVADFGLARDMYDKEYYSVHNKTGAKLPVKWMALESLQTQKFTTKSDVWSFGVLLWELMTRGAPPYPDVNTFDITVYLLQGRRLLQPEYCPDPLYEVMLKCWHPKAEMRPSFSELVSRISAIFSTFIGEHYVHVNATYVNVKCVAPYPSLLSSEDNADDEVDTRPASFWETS

[2] = tested on: HCT116 cells, MKN45 cells; experiment: Test C: Measurement of cell proliferation by 14C-thymidine pulse; assay type: cell-based; conditions: 14C-thymidine incorporation, 96 h of treatment; cell line not given
Procedure: as §1
The cells are seeded into Cytostar 96-well plates in 180 μl for 4 hours at 37° C. and 5% CO2: HCT116 cells at a rate of 2500 cells per well in DMEM medium+10% foetal calf serum+1% L-glutamine and MKN45 cells at a rate of 7500 cells per well in RPMI medium+10% foetal calf serum+1% L-glutamine. After these 4 hours of incubation, the products are added in 10 μl as a 20-fold concentrated solution according to the dilution method mentioned for the ELISA. The products are tested at 10 concentrations in duplicate from 10 000 nM to 0.3 nM with an increment of 3.
After treatment for 72 h, add 10 μl of ^14C-thymidine at 10 μCi/ml to obtain 0.1 μCi per well. The ^14C-thymidine incorporation is measured on a Micro-Beta machine (Perkin-Elmer) after 24 hours of pulse and 96 h of treatment.
All the steps of the assay are automated on BIOMEK 2000 or TECAN stations.

MET [3] = molecular target: T1, MET; experiment: Test A: HTRF MET assay in 96-well format; assay type: biochemical; design: The His-Tev-MET (956-1390) recombinant DNA in pFastBac (Invitrogen) is transfected into insect cells; His tag (N, cleaved yes); TEV cleavage site (N); made in house; host or cells: SF21 insect cells (baculovirus, pFastBac); conditions: MET 5 nM, 10 μM ATP
Procedure: I) Expression and Purification of MET, Cytoplasmic Domain
The His-Tev-MET (956-1390) recombinant DNA in pFastBac (Invitrogen) is transfected into insect cells, and after several viral amplification steps, the final baculovirus stock is tested for the expression of the protein of interest.
After infection for 72 h at 27° C. with the recombinant virus, the SF21 cell cultures are harvested by centrifugation and the cell pellets are stored at −80° C.
The cell pellets are resuspended in lysis buffer (buffer A [50 mM HEPES, pH 7.5, 250 mM NaCl, 10% glycerol, 1 mM TECP]; +cocktail of protease inhibitors, Roche Diagnostics, without EDTA, ref 1873580), stirred at 4° C. until the mixture is homogeneous and then lyzed mechanically using a “Dounce” type apparatus.
After centrifugation, the lysis supernatant is incubated for 2 h at 4° C. with nickel chelate resin (His-Trap 6 Fast Flow™, GE HealthCare). After washing with 20 volumes of buffer A, the suspension is packed into a column, and the proteins are eluted with a gradient of buffer B ([…]+290 mM imidazole).
The fractions containing the protein of interest for the purpose of electrophoretic analysis (SDS PAGE) are combined, concentrated by ultrafiltration (10 kDa cut-off) and injected onto an exclusion chromatography column (Superdex™ 200, GE HealthCare) equilibrated in buffer A.
After enzymatic cleavage of the histidine tag, the protein is reinjected onto a new IMAC nickel chelate chromatography column (His-Trap 6 Fast Flow™, GE HealthCare) equilibrated in buffer A. The fractions eluted with a gradient of buffer B and containing the protein of interest after electrophoresis (SDS PAGE) are finally combined and conserved at −80° C.
For the production of autophosphorylated protein, the previous fractions are incubated for 1 h at ambient temperature after the addition of 2 mM ATP, 2 mM MgCl2, and 4 mM Na3VO4. After the reaction has been stopped with 5 mM of EDTA, the reaction mixture is injected onto a HiPrep desalifying column (GE HealthCare) preequilibrated in buffer A+4 mM Na3VO4, and the fractions containing the protein of interest (SDS PAGE analysis) are combined and stored at −80° C. The degree of phosphorylation is verified by mass spectrometry (LC-MS) and by peptide mapping.
• A) Test A: HTRF MET assay in 96-well format
MET at a final concentration of 5 nM is incubated in a final volume of 50 μl of enzymatic reaction in the presence of the test molecule (for a final concentration range of from 0.17 nM to 10 μM, 3% DMSO final concentration) in 10 mM MOPS buffer, pH 7.4, 1 mM DTT, 0.01% Tween 20. The reaction is initiated with the substrate solution to obtain final concentrations of 1 μg/ml poly-(GAT), 10 μM ATP and 5 mM MgCl2. After incubation for 10 min at ambient temperature, the reaction is stopped with a 30 μl mix so as to obtain a final solution of 50 mM Hepes pH 7.5, 500 mM potassium fluoride, 0.1% BSA and 133 mM EDTA in the presence of 80 ng of streptavidin 61SAXLB Cis-Bio Int. and 18 ng of anti-phosphotyrosine Mab PT66-Europium Cryptate per well. After incubation for 2 hours at ambient temperature, the reading is taken at 2 wavelengths, 620 nm and 665 nm, on a reader for the TRACE/HTRF technique and the % inhibition is calculated from the 665/620 ratios.
Target sequence in this assay (P08581 956-1390): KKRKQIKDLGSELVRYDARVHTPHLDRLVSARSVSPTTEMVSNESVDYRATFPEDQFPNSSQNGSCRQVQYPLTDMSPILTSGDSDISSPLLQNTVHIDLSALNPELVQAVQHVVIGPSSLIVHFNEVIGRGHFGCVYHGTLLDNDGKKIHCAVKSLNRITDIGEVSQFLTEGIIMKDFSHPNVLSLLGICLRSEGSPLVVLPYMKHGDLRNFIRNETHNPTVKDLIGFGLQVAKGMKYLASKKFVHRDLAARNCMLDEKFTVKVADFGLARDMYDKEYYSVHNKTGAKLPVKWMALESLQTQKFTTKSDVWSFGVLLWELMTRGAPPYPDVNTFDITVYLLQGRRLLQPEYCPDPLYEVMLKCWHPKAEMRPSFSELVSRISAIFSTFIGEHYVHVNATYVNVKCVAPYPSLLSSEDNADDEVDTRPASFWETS

| SMILES | IC50 (MET [1]) | IC50 [2] | IC50 (MET [3]) |
| --- | --- | --- | --- |
| Nc1ccc2nnc(Sc3ccc4nc(NC(=O)NCCN5CCOCC5)sc4c3)n2n1 [Example 29, 1-{6-[(6-Amino[1,2,4]triazolo[4,3-b]pyridazin-3-yl)sulphanyl]-1,3-benzothiazol-2-yl}-3-[2-(morpholin-4-yl)ethyl]urea] | 100 to 500 nM | < 1000 nM | < 100 nM |
| Fc1ccc(-c2ccc3nnc(Sc4ccc5nc(NCCN6CCOCC6)sc5c4)n3n2)cc1 [Example 30, 6-{[6-(4-Fluorophenyl)[1,2,4]triazolo[4,3-b]pyridazin-3-yl]sulphanyl}-N-[2-(morpholin-4-yl)ethyl]-1,3-benzothiazol-2-amine] | < 100 nM | < 1000 nM | < 100 nM |
| CC(=O)Nc1ccc2nnc(Sc3ccc4nc(NC(=O)NCCN5CCOCC5)sc4c3)n2n1 [Example 31, N-(3-{[2-({[2-(Morpholin-4-yl)ethyl]carbamoyl}amino)-1,3-benzothiazol-6-yl]sulphanyl}[1,2,4]triazolo[4,3-b]pyridazin-6-yl)acetamide] | 100 to 500 nM | < 1000 nM | < 100 nM |
| CC(C)(C)C(=O)Nc1ccc2nnc(Sc3ccc4nc(NC(=O)NCCN5CCOCC5)sc4c3)n2n1 [Example 32, 2,2-Dimethyl-N-(3-{[2-({[2-(morpholin-4-yl)ethyl]carbamoyl}amino)-1,3-benzothiazol-6-yl]sulphanyl}[1,2,4]triazolo[4,3-b]pyridazin-6-yl)propanamide] | < 100 nM | < 1000 nM | < 100 nM |
| O=C(Nc1nc2ccc(Sc3nnc4ccc(-c5ccc(F)cc5)nn34)cc2s1)Oc1ccccc1 [Example 33, Phenyl (6-{[6-(4-fluorophenyl)[1,2,4]triazolo[4,3-b]pyridazin-3-yl]sulphanyl}-1,3-benzothiazol-2-yl)carbamate] | < 100 nM | < 1000 nM | < 500 nM |
| O=C(NCCN1CCOCC1)Nc1nc2ccc(Sc3nnc4ccc(OCC5CCO5)nn34)cc2s1 (stereo not drawn) [Example 34, 1-[2-(Morpholin-4-yl)ethyl]-3-(6-{[6-(oxetan-2-ylmethoxy)[1,2,4]triazolo[4,3-b]pyridazin-3-yl]sulphanyl}-1,3-benzothiazol-2-yl)urea] | < 100 nM | < 10000 nM | < 100 nM |
| O=C(Nc1nc2ccc(Sc3nnc4ccc(-c5ccc(F)cc5)nn34)cc2s1)OCC1CCO1 (stereo not drawn) [Example 35, Oxetan-2-ylmethyl (6-{[6-(4-fluorophenyl)[1,2,4]triazolo[4,3-b]pyridazin-3-yl]sulphanyl}-1,3-benzothiazol-2-yl)carbamate] | < 100 nM | < 1000 nM | < 100 nM |
| COc1ccc2nnc(Sc3ccc4nc(NC(=O)C5CC5)sc4c3)n2n1 [Example 36, N-{6-[(6-Methoxy[1,2,4]triazolo[4,3-b]pyridazin-3-yl)sulphanyl]-1,3-benzothiazol-2-yl}cyclopropanecarboxamide] | < 100 nM | < 1000 nM | < 100 nM |
| CCOc1ccc2nnc(Sc3ccc4nc(NC(=O)NCCN5CCOCC5)sc4c3)n2n1 [Example 37, 1-{6-[(6-Ethoxy[1,2,4]triazolo[4,3-b]pyridazin-3-yl)sulphanyl]-1,3-benzothiazol-2-yl}-3-[2-(morpholin-4-yl)ethyl]urea] | < 100 nM | < 1000 nM | < 100 nM |
| CCOC1=Nn2c(nnc2Sc2ccc3nc(NC(=O)NCCN4CCOCC4)sc3c2)CC1 [Example 38, 1-{6-[(6-Ethoxy-7,8-dihydro[1,2,4]triazolo[4,3-b]pyridazin-3-yl)sulphanyl]-1,3-benzothiazol-2-yl}-3-[2-(morpholin-4-yl)ethyl]urea] | < 100 nM | < 1000 nM | < 100 nM |
| COCCNc1ccc2nnc(Sc3ccc4nc(NC(=O)CCCN5CCOCC5)sc4c3)n2n1 [Example 39, N-[6-({6-[(2-Methoxyethyl)amino][1,2,4]triazolo[4,3-b]pyridazin-3-yl}sulphanyl)-1,3-benzothiazol-2-yl]-4-(morpholin-4-yl)butanamide] | < 100 nM | < 1000 nM | < 100 nM |
| COCCNc1ccc2nnc(Sc3ccc4nc(NC(=O)C5CC5)sc4c3)n2n1 [Example 40, N-[6-({6-[(2-Methoxyethyl)amino][1,2,4]triazolo[4,3-b]pyridazin-3-yl}sulphanyl)-1,3-benzothiazol-2-yl]cyclopropanecarboxamide] | < 100 nM | < 1000 nM | < 100 nM |
| CC(=O)Nc1nc2ccc(Sc3nnc4ccc(-c5ccc(F)cc5)nn34)cc2s1 [Example 41, N-(6-{[6-(4-Fluorophenyl)[1,2,4]triazolo[4,3-b]pyridazin-3-yl]sulphanyl}-1,3-benzothiazol-2-yl)acetamide] | < 100 nM | < 1000 nM | < 100 nM |
| O=C(NCC[N+]1([O-])CCOCC1)Nc1nc2ccc(Sc3nnc4ccc(-c5ccc(F)cc5)nn34)cc2s1 [Example 42, 1-(6-{[6-(4-Fluorophenyl)[1,2,4]triazolo[4,3-b]pyridazin-3-yl]sulphanyl}-1,3-benzothiazol-2-yl)-3-[2-(4-oxidomorpholin-4-yl)ethyl]urea] | < 100 nM | < 1000 nM | < 100 nM |
